Experimental data: patent US9414596B2, “Metalloenzyme inhibitor compounds” (Viamet Pharmaceuticals, Inc., priority 2012, dated 2016)
In brackets after ≈: the same amount, converted by molar mass.

System: Septoria tritici (ATCC 26517)
Test: Minimum Inhibitory Concentration (MIC) (Septoria tritici), CLSI-based microdilution
Type: cell-based
Settings: Zymoseptoria tritici, ATCC26517, 168 h, S. tritici ATCC 26517; seven days at 22° C. in the dark; MIC = 50% reduction in growth, visual; read-out: Septoria MIC Rating
Method: B. Minimum Inhibitory Concentration (MIC) (Septoria tritici)
Compounds of the present disclosure were assessed for their ability to inhibit the growth of a common strain of the fungal plant pathogen Septoria tritici (ATCC 26517) using a procedure based on a Clinical and Laboratory Standards Institute (CLSI) microdilution assay protocol for filamentous fungi.
Stock solutions of the test compounds and standards were prepared in DMSO at 6400 μg/mL. Each stock solution was used to prepare a 2-fold dilution series ranging from 16 to 0.016 μg/mL (total of 11 compound concentrations) in RPMI-1640 (Roswell Park Memorial Institute) medium containing 3-(N-morpholino)propanesulfonic acid (MOPS) buffer and 2% DMSO. A 100 μL aliquot of the dilutions was added to columns 1 (16 μg/mL compound) through 11 (0.016 μg/mL compound) of a 96-well microtiter plate. This format was replicated in a second row of the microtiter plate. Thus, each microtiter plate could include 11 concentrations of four test or control compounds replicated twice. A 100 μL aliquot of RPMI-1640/MOPS/2% DMSO medium was added to column 12 (no compound control) of the microtiter plate.
A fresh culture of S. tritici was used to prepare a solution of approximately 5×10^4 colony-forming units per milliliter (cfu/mL) in RPMI/MOPS medium without DMSO. A 100 μL aliquot of this solution was added to all 96 wells in the microtiter plate. […] The assay plates were incubated at 22° C. for seven days in the dark without shaking.

Compound | MIC [µg/mL]
OC(Cn1cnnn1)(c1ccc(Cl)cc1F)C(F)(F)c1ccc(-c2ccc(OC(F)(F)F)cc2)cn1 (stereo not shown) [Example 34, 2-(4-Chloro-2-fluorophenyl)-1,1-difluoro-3-(1H-tetrazol-1-yl)-1-(5-(4-(trifluoromethoxy)phenyl)pyridin-2-yl)propan-2-ol] | < 0.5
OC(Cn1cnnn1)(c1ccc(F)cc1F)C(F)(F)c1ccc(-c2ccc(CC(F)(F)F)cc2)cn1 (stereo not shown) [Example 41, 2-(2,4-Difluorophenyl)-1,1-difluoro-3-(1H-tetrazol-1-yl)-1-(5-(4-(2,2,2-trifluoroethyl)phenyl)pyridin-2-yl)propan-2-ol] | < 0.5
OC(Cn1ncnn1)(c1ccc(F)cc1F)C(F)(F)c1ccc(-c2cccc(F)c2)cn1 (stereo not shown) [Example 21] | > 4
OC(Cn1cnnn1)(c1ccc(F)cc1F)C(F)(F)c1ccc(-c2ccc(SC(F)F)cc2)cn1 (stereo not shown) [Example 40, 1-(5-(4-((Difluoromethyl)thio)phenyl)pyridin-2-yl)-2-(2,4-difluorophenyl)-1,1-difluoro-3-(1H-tetrazol-1-yl)propan-2-ol] | < 0.5
CC(F)(c1ccc(-c2ccc(Cl)cc2)cn1)C(O)(Cn1cnnn1)c1ccc(F)cc1F (stereo not shown) [Example 55, 3-(5-(4-Chlorophenyl)pyridin-2-yl)-2-(2,4-difluorophenyl)-3-fluoro-1-(1H-tetrazol-1-yl)butan-2-ol] | 1.5 to 4 (≈ 3.26 to 8.7 µM)
O=C(c1ccc(-c2ccc(C(F)(F)C(O)(Cn3cnnn3)c3ccc(F)cc3F)nc2)cc1)C(F)(F)F (stereo not shown) [Example 33, 1-(4-(6-(2-(2,4-Difluorophenyl)-1,1-difluoro-2-hydroxy-3-(1H-tetrazol-1-yl)propyl)pyridin-3-yl)phenyl)-2,2,2-trifluoroethanone] | 0.5 to 1.5 (≈ 0.952 to 2.86 µM)
OC(Cn1cnnn1)(c1ccc(F)cc1F)C(F)(F)c1ccc(-c2ccc(OC(F)(F)F)cc2)cn1 (stereo not shown) [Example 7, 2-(2,4-Difluorophenyl)-1,1-difluoro-3-(1H-tetrazol-1-yl)-1-(5-(4-(trifluoromethoxy)phenyl)-pyridin-2-yl)propan-2-ol] | < 0.5
OC(Cn1cnnn1)(c1ccc(F)cc1F)C(F)(F)c1ccc(-c2ccc(N3CCOCC3)cc2)cn1 (stereo not shown) [Example 36, 2-(2,4-Difluorophenyl)-1,1-difluoro-1-(5-(4-morpholinophenyl)pyridin-2-yl)-3-(1H-tetrazol-1-yl)propan-2-ol] | < 0.5
CC(C)(C)Oc1ccc(-c2ccc(C(F)(F)C(O)(Cn3cnnn3)c3ccc(F)cc3F)nc2)cc1 (stereo not shown) [Example 28, 1-(5-(4-(tert-Butoxy)phenyl)pyridin-2-yl)-2-(2,4-difluorophenyl)-1,1-difluoro-3-(1H-tetrazol-1-yl)propan-2-ol] | < 0.5
OC(Cn1cncn1)(c1ccc(F)cc1F)C(F)(F)c1ccc(-c2ccc(OC(F)(F)F)cc2)cn1 (stereo not shown) [Example 18, 2-(2,4-Difluorophenyl)-1,1-difluoro-3-(1H-1,2,4-triazol-1-yl)-1-(5-(4-(trifluoromethoxy)phenyl)pyridin-2-yl) propan-2-ol] | < 0.5
CNC(=O)c1ccc(-c2ccc(C(F)(F)C(O)(Cn3cnnn3)c3ccc(F)cc3F)nc2)cc1 (stereo not shown) [Example 42, 4-(6-(2-(2,4-Difluorophenyl)-1,1-difluoro-2-hydroxy-3-(1H-tetrazol-1-yl)propyl)pyridin-3-yl)-N-methylbenzamide] | > 4
OC(Cn1cnnn1)(c1ccc(F)cc1F)C(F)(F)c1ccc(-c2ccc(OC(F)F)cc2)cn1 (stereo not shown) [Example 38, 1-(5-(4-(Difluoromethoxy)phenyl)pyridin-2-yl)-2-(2,4-difluorophenyl)-1,1-difluoro-3-(1H-tetrazol-1-yl)propan-2-ol] | < 0.5
OC(Cn1cncn1)(c1ccc(F)cc1F)C(F)(F)c1ccc(-c2ccc(F)cc2)cn1 (stereo not shown) [Example 16, 2-(2,4-Difluorophenyl)-1,1-difluoro-1-(5-(4-fluorophenyl)pyridin-2-yl)-3-(1H-1,2,4-triazol-1-yl)propan-2-ol] | < 0.5
CC(F)(c1ccc(-c2ccc(C(F)(F)F)cc2)cn1)C(O)(Cn1cnnn1)c1ccc(F)cc1F (stereo not shown) [Example 53, 2-(2,4-Difluorophenyl)-3-fluoro-1-(1H-tetrazol-1-yl)-3-(5-(4-(trifluoromethyl)phenyl)pyridin-2-yl)butan-2-ol] | 1.5 to 4 (≈ 3.04 to 8.11 µM)
OC(Cn1ncnn1)(c1ccc(F)cc1F)C(F)(F)c1ccc(-c2ccc(C(F)(F)F)cc2)cn1 (stereo not shown) [Example 22] | > 4
OC(Cn1cnnn1)(c1ccc(F)cc1F)C(F)(F)c1ccc(-c2ccc(SC(F)(F)F)cc2)cn1 (stereo not shown) [Example 27, 2-(2,4-Difluorophenyl)-1,1-difluoro-3-(1H-tetrazol-1-yl)-1-(5-(4-((trifluoromethyl)thio)phenyl)pyridin-2-yl)propan-2-ol] | < 0.5
CC(F)(c1ccc(-c2ccc(OCC(F)(F)F)cc2)cn1)C(O)(Cn1cnnn1)c1ccc(F)cc1F (stereo not shown) [Example 57, 2-(2,4-Difluorophenyl)-3-fluoro-1-(1H-tetrazol-1-yl)-3-(5-(4-(2,2,2-trifluoroethoxy)phenyl)pyridin-2-yl)butan-2-ol] | 1.5 to 4 (≈ 2.87 to 7.64 µM)

Second part, the molecule after the results:

MIC [µg/mL] | Compound
1.5 to 4 (≈ 2.92 to 7.79 µM) | OC(Cn1cnnn1)(c1ccc(F)cc1F)C(F)(F)c1ccc(-c2cccc(OC(F)(F)F)c2)cn1 (stereo not shown) [Example 6, 2-(2,4-Difluorophenyl)-1,1-difluoro-3-(1H-tetrazol-1-yl)-1-(5-(3-(trifluoromethoxy)phenyl)-pyridin-2-yl)propan-2-ol]
0.5 to 1.5 (≈ 1.06 to 3.18 µM) | CC(C)c1cccc(-c2ccc(C(F)(F)C(O)(Cn3cnnn3)c3ccc(F)cc3F)nc2)c1 (stereo not shown) [Example 24, 2-(2,4-Difluorophenyl)-1,1-difluoro-1-(5-(3-isopropylphenyl)pyridin-2-yl)-3-(1H-tetrazol-1-yl)propan-2-ol]
< 0.5 | OC(Cn1cnnn1)(c1ccc(F)cc1F)C(F)(F)c1ccc(-c2ccc(F)c(F)c2)cn1 (stereo not shown) [Example 25, 2-(2,4-Difluorophenyl)-1-(5-(3,4-difluorophenyl)pyridin-2-yl)-1,1-difluoro-3-(1H-tetrazol-1-yl)propan-2-ol]
1.5 to 4 (≈ 3.3 to 8.8 µM) | N#Cc1cccc(-c2ccc(C(F)(F)C(O)(Cn3cnnn3)c3ccc(F)cc3F)nc2)c1 (stereo not shown) [Example 3, 3-(6-(2-(2,4-Difluorophenyl)-1,1-difluoro-2-hydroxy-3-(1H-tetrazol-1-yl)propyl)pyridin-3-yl)benzonitrile]
0.5 to 1.5 (≈ 1.08 to 3.23 µM) | OC(Cn1cnnn1)(c1ccc(F)cc1F)C(F)(F)c1ccc(-c2cccc(Cl)c2)cn1 (stereo not shown) [Example 8, 1-(5-(3-Chlorophenyl)pyridin-2-yl)-2-(2,4-difluorophenyl)-1,1-difluoro-3-(1H-tetrazol-1-yl)propan-2-ol]
0.5 to 1.5 (≈ 1.01 to 3.02 µM) | OC(Cn1cnnn1)(c1ccc(F)cc1F)C(F)(F)c1ccc(-c2cccc(C(F)(F)F)c2)cn1 (stereo not shown) [Example 31, 2-(2,4-Difluorophenyl)-1,1-difluoro-3-(1H-tetrazol-1-yl)-1-(5-(3-(trifluoromethyl)phenyl)pyridin-2-yl)propan-2-ol]
0.5 to 1.5 (≈ 1.05 to 3.16 µM) | O=[N+]([O-])c1ccc(-c2ccc(C(F)(F)C(O)(Cn3cnnn3)c3ccc(F)cc3F)nc2)cc1 (stereo not shown) [Example 32, 2-(2,4-Difluorophenyl)-1,1-difluoro-1-(5-(4-nitrophenyl)pyridin-2-yl)-3-(1H-tetrazol-1-yl)propan-2-ol]
< 0.5 | OC(Cn1cnnn1)(c1ccc(F)cc1F)C(F)(F)c1ccc(-c2ccc(F)cc2)cn1 (stereo not shown) [Example 5, 2-(2,4-Difluorophenyl)-1,1-difluoro-1-(5-(4-fluorophenyl)pyridin-2-yl)-3-(1H-tetrazol-1-yl)propan-2-ol]
< 0.5 | CC(C)Oc1ccc(-c2ccc(C(F)(F)C(O)(Cn3cnnn3)c3ccc(F)cc3F)nc2)cc1 (stereo not shown) [Example 4, 2-(2,4-Difluorophenyl)-1,1-difluoro-1-(5-(4-isopropoxyphenyl)pyridin-2-yl)-3-(1H-tetrazol-1-yl)propan-2-ol]
< 0.5 | OC(Cn1cnnn1)(c1ccc(F)cc1F)C(F)(F)c1ccc(-c2cc(F)ccc2F)cn1 (stereo not shown) [Example 10, 2-(2,4-Difluorophenyl)-1-(5-(2,5-difluorophenyl)pyridin-2-yl)-1,1-difluoro-3-(1H-tetrazol-1-yl)propan-2-ol]
< 0.5 | OC(Cn1cnnn1)(c1ccc(F)cc1F)C(F)(F)c1ccc(-c2ccc(Cl)cc2)cn1 (stereo not shown) [Example 9, 1-(5-(4-Chlorophenyl)pyridin-2-yl)-2-(2,4-difluorophenyl)-1,1-difluoro-3-(1H-tetrazol-1-yl)propan-2-ol]
< 0.5 | Oc1cccc(-c2ccc(C(F)(F)C(O)(Cn3cnnn3)c3ccc(F)cc3F)nc2)c1 (stereo not shown) [Example 30, 3-(6-(2-(2,4-Difluorophenyl)-1,1-difluoro-2-hydroxy-3-(1H-tetrazol-1-yl)propyl)pyridin-3-yl)phenol]
1.5 to 4 (≈ 3.11 to 8.3 µM) | OC(Cn1cnnn1)(c1ccc(F)cc1F)C(F)(F)c1ccc(-c2ccc(Cl)c(F)c2)cn1 (stereo not shown) [Example 29, 1-(5-(4-Chloro-3-fluorophenyl)pyridin-2-yl)-2-(2,4-difluorophenyl)-1,1-difluoro-3-(1H-tetrazol-1-yl)propan-2-ol]
1.5 to 4 (≈ 3.37 to 8.98 µM) | Oc1ccc(-c2ccc(C(F)(F)C(O)(Cn3cnnn3)c3ccc(F)cc3F)nc2)cc1 (stereo not shown) [Example 23, 4-(6-(2-(2,4-Difluorophenyl)-1,1-difluoro-2-hydroxy-3-(1H-tetrazol-1-yl)propyl)pyridin-3-yl)phenol]
